These results are taken from ChEMBL document CHEMBL4024702, “Covalent Modifiers: A Chemical Perspective on the Reactivity of α,β-Unsaturated Carbonyls with Thiols via Hetero-Michael Addition Reactions” (J Med Chem, 2017).

SMILES strings stand for the structures.

Series [1] in a line: Half life in rat plasma. The class given is ADME, cell-free.
The subject of series [2] is rhinovirus B14. As to the kind of experiment: Irreversible inhibition of human rhinovirus serotype 14 3C protease assessed as ratio of Kobs/I.
Series [3] can be described thus: Cytotoxicity against human MRC5 cells. The class given is cell-based.
The next series has as its system Enterovirus. Description: Antiviral activity against rhinovirus infected in human H1HeLa cells. It is filed as functional. The note with it: H1-HeLa.
Series [4] in a line: Half life in human plasma. The class given is ADME, cell-free.
The nature of series [5]: Half life in dog plasma. The class given is ADME, cell-free, Canis lupus familiaris.
A short description of series [6]: Cytotoxicity against human H1HeLa cells after 2 days by XTT/PMS dye based assay. The class given is cell-based, H1-HeLa. On the technique in general: Tetrazolium dyes change colour on reduction, which living cells bring about.
The subject of series [7] is rhinovirus B14. Description: Antiviral activity against rhinovirus serotype 14 infected in human H1HeLa cells after 2 days by XTT/PMS dye based assay. It is filed as functional, cell-based. The note with it: Rhinovirus B, H1-HeLa, 48 h.
The nature of series [8]: Reversible inhibition of human rhinovirus serotype 14 3C protease by fluorescence resonance energy transfer assay. Also noted: species or system rhinovirus B14.

The term half-life denotes the time in which the quantity being followed falls by half. High values mean slow decline, low ones rapid decline. For orientation: CC50 means the concentration giving 50% cytotoxicity. As a reminder, the EC90 is the point of the concentration-response curve where the effect stands at 90%. Read a high EC90 as weaker potency. Regarding `CCOC(=O)/C=C/C(C[C@@H]1CCNC1=O)NC(=O)[C@@H](CC(=O)[C@@H](NC(=O)c1cc(C)on1)C(C)C)Cc1ccc(F)cc1` (some centres undefined), the half-life in series [1] is under 2 min; in [4] it was over 1 h; in series [5], over 1 h. In addition, the Ratio in the series with rhinovirus B14 [2] worked out at 1.47 ×10⁶ /M/s. Moreover, the half-maximal cytotoxic concentration (CC50) in series [3] is over 100 µM. The same compound registered an EC90 with Enterovirus of 0.018 to 0.261 µM.
One may read the EC50 as the concentration that produces a half-maximal response. Low readings indicate greater potency, high ones weaker potency. In general, Ki refers to the equilibrium dissociation constant of an inhibitor or competing ligand from its target. A high value points to a looser hold on the target. For `CC(C)C[C@H](NC(=O)OCc1ccccc1)C(=O)N[C@@H](Cc1ccccc1)C(=O)N[C@H](/C=C1\CCCOC1=O)CCC(N)=O`, the CC50 at 48 h in [6] is over 100 µM. In the series with rhinovirus B14 [7], this compound yielded an EC50 of 16 µM. In series [8], this compound displayed a Ki of 0.03 µM.
